Molecular target: T1, Human pyruvate kinase R (PKR) (Homo sapiens, UniProt P30613)
T1 construct: Human pyruvate kinase R (PKR), residues 14-574; 6x-His (N, cleaved yes); 8x-Arg (N, cleaved yes); SUMO (N, cleaved yes); host or cells: E. coli
Assay: Biochemical assay for activation of pyruvate kinase R (Kinase-Glo luminescence, ATP generation)
Conditions: for AC50: 0.1 nM PKR, 2 mM FBP, 0.3 mM ADP, 0.1 mM PEP; for PKR % activation: maximal activation level relative to the activation level achieved by AG-348 @ 10 μM
Procedure: Proteins were translated as fusions with 6×-His, 8×-Arg, and SUMO at the N-terminus. […] All proteins were cloned, expressed in E. coli, and purified using similar protocols. Cells were grown at 30° C. in Luria-Bertani broth supplemented with 0.4% glucose to OD600=0.8 and induced with 0.4 mM IPTG at 16° C. for 18 hours. Cells were harvested by centrifugation, resuspended in 50 mM potassium phosphate pH 8.0, 500 mM NaCl, 25 mM imidazole pH 8.0, and 3 mM β-mercaptoethanol. Cells were lysed using a LM20 microfluidizer from Microfluidics (Westwood, Mass.). The crude lysate was immediately supplemented with 0.2 mM phenylmethylsulfonyl fluoride (PMSF) and centrifuged at 20,000 g for 20 minutes. The soluble fraction was subsequently incubated with 2 mL Ni-NTA (GE Healthcare) per 1,000 ODs for 1 hour at 4° C. Following incubation with the Ni-NTA resin, lysate was removed by pelleting resin at 2,500 g for 3 minutes and washed 3 times with 9 bed volumes of 50 mM potassium phosphate pH 8.0, 500 mM NaCl, 25 mM imidazole, and 3 mM β-mercaptoethanol. Following the batch wash Ni-NTA resin was loaded onto a gravity column and His-tagged protein was eluted with 6 bed volumes of 10 mM Tris/HCl pH 8.0, 200 mM NaCl, 500 mM imidazole, and 3 mM β-mercaptoethanol. Eluted protein was dialyzed overnight against 10 mM Tris/HCl pH 8.0, 200 mM NaCl, and 1 mM DTT and the 6×-His-8×-Arg-SUMO-tag was cleaved using a 20:1 molar ratio of protein:3C protease. The protein was purified by anion exchange chromatography on a HiTrapQ or MonoQ 10/100 GL column (GE Healthcare) via a linear NaCl gradient and twice by size exclusion chromatography using a Superdex S200 26/60 column (GE Healthcare) run in 10 mM Tris/HCl pH 8.0, 200 mM NaCl, 10 mM MgCl2, 1 mM DTT. Proteins were concentrated to ˜12 mg/mL for crystallization and flash frozen for storage.
Biochemical Assay for Activation of Pyruvate Kinase R
Activation of pyruvate kinase R (PKR) and pyruvate kinase M2 (PKM2) were measured using a luminescence based measurement of ATP generation and the Kinase-Glo luminescent kinase reagent kit.

T1 sequence (P30613 14-574): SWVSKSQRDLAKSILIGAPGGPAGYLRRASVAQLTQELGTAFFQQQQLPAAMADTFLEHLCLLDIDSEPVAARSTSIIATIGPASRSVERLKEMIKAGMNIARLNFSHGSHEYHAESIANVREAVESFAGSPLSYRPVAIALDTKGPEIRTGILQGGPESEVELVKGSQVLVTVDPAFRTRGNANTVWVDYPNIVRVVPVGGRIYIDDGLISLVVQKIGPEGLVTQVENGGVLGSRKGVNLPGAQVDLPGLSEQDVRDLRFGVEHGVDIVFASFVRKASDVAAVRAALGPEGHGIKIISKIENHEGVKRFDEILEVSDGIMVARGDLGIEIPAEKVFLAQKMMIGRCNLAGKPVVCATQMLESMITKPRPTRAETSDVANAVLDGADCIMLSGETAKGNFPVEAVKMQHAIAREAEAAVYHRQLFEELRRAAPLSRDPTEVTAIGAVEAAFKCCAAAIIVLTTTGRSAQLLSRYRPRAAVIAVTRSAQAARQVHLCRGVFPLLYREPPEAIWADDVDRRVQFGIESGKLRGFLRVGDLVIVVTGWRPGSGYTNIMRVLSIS

| SMILES | AC50 [µM] | PKR % activation [%] |
| --- | --- | --- |
| N[C@@H](C(=O)N1Cc2cn(S(=O)(=O)c3ccc(OC(F)F)cc3)nc2C1)c1ccc(Cl)cc1 [Compound 51, (2R)-2-amino-2-(4-chlorophenyl)-1-{2-[4-(difluoromethoxy)benzenesulfonyl]-2H,4H,5H,6H-pyrrolo[3,4-c]pyrazol-5-yl}ethan-1-one] | 0.023 |  |
| C[C@@H](O)[C@H](C(=O)N1Cc2cn(S(=O)(=O)c3ccc(OC(F)F)cc3)nc2C1)c1ccccc1 [Compound 10] | 0.455 | 165 |
| N[C@@H](C(=O)N1Cc2cn(S(=O)(=O)c3ccc(OC(F)F)cc3)nc2C1)c1ccc(F)cc1 [Compound 49, (2R)-2-amino-1-{2-[4-(difluoromethoxy)benzenesulfonyl]-2H,4H,5H,6H-pyrrolo[3,4-c]pyrazol-5-yl}-2-(4-fluorophenyl)ethan-1-one] | 0.017 |  |
| CC(C)(O)[C@@H](C(=O)N1Cc2cn(S(=O)(=O)c3ccc4occc4c3)nc2C1)c1ccccc1 [Compound 34, (2S)-1-[2-(1-benzofuran-5-sulfonyl)-2H,4H,5H,6H-pyrrolo[3,4-c]pyrazol-5-yl]-3-hydroxy-3-methyl-2-phenylbutan-1-one] | 0.21 |  |
| C[C@@H](O)[C@H](C(=O)N1Cc2cn(S(=O)(=O)c3ccc(OC(F)F)cc3)nc2C1)c1ccccc1 [Compound 11] | 7.27 | 164 |
| O=C(N1Cc2cn(S(=O)(=O)c3ccc4ncsc4c3)nc2C1)C1(c2ccccc2)COCCN1 (centres unmarked) [Compound 21, 6-{[5-(3-phenylmorpholine-3-carbonyl)-2H,4H,5H,6H-pyrrolo[3,4-c]pyrazol-2-yl]sulfonyl}-1,3-benzothiazole] | 0.209 |  |
| O=C([C@H](CO)c1ccccc1)N1Cc2cn(S(=O)(=O)c3cnc4c(c3)OCCO4)nc2C1 [Compound 76, (2S)-1-(2-{2H,3H-[1,4]dioxino[2,3-b]pyridine-7-sulfonyl}-2H,4H,5H,6H-pyrrolo[3,4-c]pyrazol-5-yl)-3-hydroxy-2-phenylpropan-1-one] | 0.0069 |  |
| O=C(N1Cc2cn(S(=O)(=O)c3ccc4c(c3)NCCO4)nc2C1)[C@]1(c2ccccn2)CCOC1 (single isomer, unassigned) [Compound 46, 6-({5-[(3S)-3-(pyridin-2-yl)oxolane-3-carbonyl]-2H,4H,5H,6H-pyrrolo[3,4-c]pyrazol-2-yl}sulfonyl)-3,4-dihydro-2H-1,4-benzoxazine or 6-({5-[(3R)-3-(pyridin-2-yl)oxolane-3-carbonyl]-2H,4H,5H,6H-pyrrolo[3,4-c]pyrazol-2-yl}sulfonyl)-3,4-dihydro-2H-1,4-benzoxazine] | 0.129 | 45 |
| NCC(C(=O)N1Cc2cn(S(=O)(=O)c3ccc4ncsc4c3)nc2C1)c1ccccc1 (centres unmarked) [Compound 13, 3-amino-1-[2-(1,3-benzothiazole-6-sulfonyl)-2H,4H,5H,6H-pyrrolo[3,4-c]pyrazol-5-yl]-2-phenylpropan-1-one] | 0.167 |  |
| CC(C)(O)[C@H](C(=O)N1Cc2cn(S(=O)(=O)c3ccc4occc4c3)nc2C1)c1ccccc1 [Compound 33, (2R)-1-[2-(1-benzofuran-5-sulfonyl)-2H,4H,5H,6H-pyrrolo[3,4-c]pyrazol-5-yl]-3-hydroxy-3-methyl-2-phenylbutan-1-one] | 0.13 |  |
| O=C([C@H](CO)c1ccccc1F)N1Cc2cn(S(=O)(=O)c3ccc(OC(F)F)nc3)nc2C1 [Compound 85, (2S)-1-(2-[6-(difluoromethoxy)pyridin-3-yl]sulfonyl-2H,4H,5H,6H-pyrrolo[3,4-c]pyrazol-5-yl)-2-(2-fluorophenyl)-3-hydroxypropan-1-one] | 0.0068 |  |
| O=C([C@H](CO)c1ccccc1F)N1Cc2cn(S(=O)(=O)c3cnc4c(c3)OCCO4)nc2C1 [Compound 80, (2S)-1-(2-{2H,3H-[1,4]dioxino[2,3-b]pyridine-7-sulfonyl}-2H,4H,5H,6H pyrrolo[3,4-c]pyrazol-5-yl)-2-(2-fluorophenyl)-3-hydroxypropan-1-one] | 0.0021 |  |
| Cc1ncccc1[C@@H](N)C(=O)N1Cc2cn(S(=O)(=O)c3ccc4ncsc4c3)nc2C1 (single isomer, unassigned) [Compound 55, (2R)-2-amino-1-[2-(1,3-benzothiazole-6-sulfonyl)-2H,4H,5H,6H-pyrrolo[3,4-c]pyrazol-5-yl]-2-(2-methylpyridin-3-yl)ethan-1-one or (2S)-2-amino-1-[2-(1,3-benzothiazole-6-sulfonyl)-2H,4H,5H,6H-pyrrolo[3,4-c]pyrazol-5-yl]-2-(2-methylpyridin-3-yl)ethan-1-one] | > 10 | 0 |
| O=C([C@@H](c1ccccc1)N1CCOCC1)N1Cc2cn(S(=O)(=O)c3ccc(OC(F)F)cc3)nc2C1 (single isomer, unassigned) [Compound 108, (2R)-1-{2-[4-(difluoromethoxy)benzenesulfonyl]-2H,4H,5H,6H-pyrrolo[3,4-c]pyrazol-5-yl}-2-(morpholin-4-yl)-2-phenylethan-1-one or (2S)-1-{2-[4-(difluoromethoxy)benzenesulfonyl]-2H,4H,5H,6H-pyrrolo[3,4-c]pyrazol-5-yl}-2-(morpholin-4-yl)-2-phenylethan-1-one] | > 10 | 0 |
| C[C@@](CO)(C(=O)N1Cc2cn(S(=O)(=O)c3ccc4ncsc4c3)nc2C1)c1ccccn1 (single isomer, unassigned) [Compound 44, (2R)-1-[2-(1,3-benzothiazole-6-sulfonyl)-2H,4H,5H,6H-pyrrolo[3,4-c]pyrazol-5-yl]-3-hydroxy-2-methyl-2-(pyridin-2-yl)propan-1-one or (2S)-1-[2-(1,3-benzothiazole-6-sulfonyl)-2H,4H,5H,6H-pyrrolo[3,4-c]pyrazol-5-yl]-3-hydroxy-2-methyl-2-(pyridin-2-yl)propan-1-one] | 0.55 | 86 |
| O=C([C@H](CO)c1ccccc1)N1Cc2cn(S(=O)(=O)c3ccc(OC4CC4)nc3)nc2C1 [Compound 97, (2S)-1-{2-[(6-cyclopropoxypyridin-3-yl)sulfonyl]-2H,4H,5H,6H-pyrrolo[3,4-c]pyrazol-5-yl}-3-hydroxy-2-phenylpropan-1-one] | > 10 |  |
| O=C([C@@H](c1ccccc1)N1CCOCC1)N1Cc2cn(S(=O)(=O)c3ccc(OC(F)F)cc3)nc2C1 (single isomer, unassigned) [Compound 107, (2R)-1-{2-[4-(difluoromethoxy)benzenesulfonyl]-2H,4H,5H,6H-pyrrolo[3,4-c]pyrazol-5-yl}-2-(morpholin-4-yl)-2-phenylethan-1-one or (2S)-1-{2-[4-(difluoromethoxy)benzenesulfonyl]-2H,4H,5H,6H-pyrrolo[3,4-c]pyrazol-5-yl}-2-(morpholin-4-yl)-2-phenylethan-1-one] | > 10 | 0 |
| Cc1cccc([C@@]2(C(=O)N3Cc4cn(S(=O)(=O)c5ccc6ncsc6c5)nc4C3)CCOC2)n1 (single isomer, unassigned) [Compound 36, 6-({5-[(3S)-3-(6-methylpyridin-2-yl)oxolane-3-carbonyl]-2H,4H,5H,6H-pyrrolo[3,4-c]pyrazol-2-yl}sulfonyl)-1,3-benzothiazole or 6-({5-[(3R)-3-(6-methylpyridin-2-yl)oxolane-3-carbonyl]-2H,4H,5H,6H-pyrrolo[3,4-c]pyrazol-2-yl}sulfonyl)-1,3-benzothiazole] | 0.591 | 38 |
| N[C@@H](C(=O)N1Cc2cn(S(=O)(=O)c3ccc(OC(F)F)cc3)nc2C1)c1cccc(Cl)c1 [Compound 50, (2R)-2-amino-2-(3-chlorophenyl)-1-{2-[4-(difluoromethoxy)benzenesulfonyl]-2H,4H,5H,6H-pyrrolo[3,4-c]pyrazol-5-yl}ethan-1-one] | 0.071 |  |
| Cc1ncccc1[C@@H](N)C(=O)N1Cc2cn(S(=O)(=O)c3ccc4ncsc4c3)nc2C1 (single isomer, unassigned) [Compound 47, (2R)-2-amino-1-[2-(1,3-benzothiazole-6-sulfonyl)-2H,4H,5H,6H-pyrrolo[3,4-c]pyrazol-5-yl]-2-(2-methylpyridin-3-yl)ethan-1-one or (2S)-2-amino-1-[2-(1,3-benzothiazole-6-sulfonyl)-2H,4H,5H,6H-pyrrolo[3,4-c]pyrazol-5-yl]-2-(2-methylpyridin-3-yl)ethan-1-one] | 0.064 | 40 |
